Literature values in article PMC12141164, “Phase-1 study of vamotinib (PF-114), a 3rd generation BCR::ABL1 tyrosine kinase-inhibitor, in chronic myeloid leukaemia” (Annals of Hematology, 2025).
Where two headings read alike, the source gives them in different places.

Experiments:
Details in all cases: cited from earlier work
PDGFRa = tested on: PDGFRa
EPHA6 = tested on: EPHA6
EPHA7 = tested on: EPHA7
VEGFR2 = tested on: VEGFR2
ZAK = tested on: ZAK
[1] = parameters: method as in PMID 35982483
TIE2 = tested on: TIE2
TAK1 = tested on: TAK1

| SMILES | inhibition of PDGFRa (PDGFRa; off-target kinases) | inhibition of EPHA6 (EPHA6) | inhibition of EPHA7 (EPHA7) | inhibition of VEGFR2 (VEGFR2) | inhibition of ZAK (ZAK) | most common non-hematologic adverse reaction ([1]; clinical evaluation) | drug related cardiovascular adverse events ([1]; recent clinical studies) | inhibition of TIE2 (TIE2) | inhibition of TAK1 (TAK1) | inhibition of PDGFRa (PDGFRa; kinase inhibition profiles) | inhibition of EPHA6 (EPHA6; kinase inhibition profiles) | inhibition of EPHA7 (EPHA7; kinase inhibition profiles) | inhibition of VEGFR2 (VEGFR2; kinase inhibition profiles) | inhibition of ZAK (ZAK; kinase inhibition profiles) | inhibition of TIE2 (TIE2; kinase inhibition profiles) | inhibition of TAK1 (TAK1; kinase inhibition profiles) |
| --- | --- | --- | --- | --- | --- | --- | --- | --- | --- | --- | --- | --- | --- | --- | --- | --- |
| Cc1ccc(C(=O)Nc2ccc(CN3CCN(C)CC3)c(C(F)(F)F)c2)cc1C#Cc1cnc2[nH]ncc2c1 [olverembatinib] | among the off-target kinases | not | not | not | potent inhibitor | skin pigmentation | some drug related cardiovascular adverse events, including vascular occlusions | potent inhibitor | potent inhibitor | – | – | – | – | – | – | – |
| Cc1ccc(C(=O)Nc2ccc(CN3CCN(C)CC3)c(C(F)(F)F)c2)cc1C#Cc1cnc2cccnn12 [ponatinib] | – | – | – | – | – | – | – | – | – | potently inhibited | inhibition | inhibition | inhibition | inhibition | inhibition | inhibition |
